Test results as given in patent US12157730B2, “Heteroaryl derivative, method for producing same, and pharmaceutical composition comprising same as effective component” (VORONOI INC., priority 2019, dated 2024).

molecular target: T1, Ba/F3 cell EGFR Exon20 ins NPH (Homo sapiens, UniProt P00533, INS773NPH); test: Ba/F3 cell proliferation suppression, EGFR Exon20 ins NPH; type: cell-based; settings: GI50 class; Ba/F3 cell line with NPH inserted at Exon20 of EGFR; 72 hours
T1 construct: expressed in transfected cells; host or cells: Ba/F3
Procedure, shortened: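 Growth suppression determined as GI50 following 72 h exposure across 12 concentrations up to 50 um, with viability by luminescent ATP assay (CellTiter-Glo).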

| Structure (SMILES) | Ba/F3 (NPH) Activity |
| --- | --- |
| C=CC(=O)Nc1cc(Nc2cc(N3OCC[C@@H]3c3cccc(F)c3F)ncn2)c(OC)cc1N1CCN(C2CC2)CC1 [compound 333, N-(2-(4-cyclopropylpiperazine-1-yl)-5-((6-((R)-3-(2,3-difluorophenyl)isoxazolidine-2-yl)pyrimidine-4-yl)amino)-4-methoxyphenyl) acrylamide] | A (GI50 < 50 nM) |
| C=CC(=O)Nc1cc(Nc2cc(N3OCC[C@@H]3c3ccc(F)c(F)c3F)ncn2)c(OC)cc1N1CC[C@@H](N(C)C)C1 [compound 622, N-(2-((R)-3-(dimethylamino)pyrolidine-1-yl)-4-methoxy-5-((6-((R)-3-(2,3,4-trifluorophenyl)isoxazolidine-2-yl)pyrimidine-4-yl)amino)phenyl)acrylamide] | C (500 nM ≤ GI50 < 5000 nM) |
| C=CC(=O)Nc1cc(Nc2cc(N3OCC[C@@H]3c3ccc(F)c(F)c3F)ncn2)c(OC)cc1N(C)CCN(C)C [compound 571, N-(2-((2-(dimethylamino)ethyl) (methyl)amino)-4-methoxy-5-((6-((R)-3-(2,3,4-trifluorophenyl)isoxazolidine-2-yl)pyrimidine-4-yl)amino)phenyl) acrylamide] | A (GI50 < 50 nM) |
| C=CC(=O)Nc1cc(Nc2cc(N3OCC[C@@H]3c3ccc(Cl)c(Cl)c3)ncn2)c(OC)cc1N1CCN(CC2CC2)CC1 [compound 687, N-(2-(4-(cyclopropylmethyl)piperazine-1-yl)-5-((6-((R)-3-(3,4-dichlorophenyl)isoxazolidine-2-yl)pyrimidine-4-yl)amino)-4-methoxyphenyl) acrylamide] | A (GI50 < 50 nM) |
| C=CC(=O)Nc1cc(Nc2cc(N3OCC[C@@H]3c3cc(F)cc(F)c3)ncn2)c(OC)cc1OCCC(C)(C)OC [compound 495, N-(5-((6-((R)-3-(3,5-difluorophenyl)isoxazolidine-2-yl)pyrimidine-4-yl)amino)-4-methoxy-2-(3-methoxy-3-methylbutoxy)phenyl) acrylamide] | A (GI50 < 50 nM) |
| C=CC(=O)Nc1cc(Nc2cc(N3OCC[C@@H]3c3cccc(F)c3)ncn2)c(OC)cc1N1CC[C@@H](N2CCOCC2)C1 [compound 323, N-(5-((6-((R)-3-(3-fluorophenyl)isoxazolidine-2-yl)pyrimidine-4-yl)amino)-4-methoxy-2-((R)-3-morpholinopyrolidine-1-yl)phenyl) acrylamide] | A (GI50 < 50 nM) |
| C=CC(=O)Nc1cc(Nc2cc(N3OCC[C@@H]3c3cccc(C#N)c3)ncn2)c(OC)cc1N1CCC(N2CC[C@H](N(C)C)C2)CC1 [compound 435, N-(5-((6-((R)-3-(3-cyanophenyl)isoxazolidine-2-yl)pyrimidine-4-yl)amino)-2-(4-((S)-3-(dimethylamino)pyrolidine-1-yl)piperidine-1-yl)-4-methoxyphenyl) acrylamide] | B (50 nM ≤ GI50 < 500 nM) |
| C=CC(=O)Nc1cc(Nc2cc(N3OCC[C@@H]3c3cccc(Cl)c3F)ncn2)c(OC)cc1N1CCC(N2CCN(C3CC3)[C@@H](C)C2)CC1 [Example 179, N-(5-((6-((R)-3-(3-chloro-2-fluorophenyl)isoxazolidine-2-yl)pyrimidine-4-yl)amino)-2-(4-((S)-4-cyclopropyl-3-methylpiperazine-1-yl)piperidine-1-yl)-4-methoxyphenyl) acrylamide] | A (GI50 < 50 nM) |
| C=CC(=O)Nc1cc(Nc2cc(N3OCC[C@]3(C)c3ccccc3)ncn2)c(OC)cc1N1CCC(N2C[C@H]3C[C@@H]2CO3)CC1 [Example 270, N-(2-(4-((1R,4R)-2-oxa-5-azabicyclo[2.2.1]heptane-5-yl)piperidine-1-yl)-4-methoxy-5-((6-((R)-3-methyl-3-phenylisoxazolidine-2-yl)pyrimidine-4-yl)amino)phenyl) acrylamide] | B (50 nM ≤ GI50 < 500 nM) |
| C=CC(=O)Nc1cc(Nc2cc(N3OCC[C@@H]3c3ccc(F)cc3F)ncn2)c(OC)cc1N1CCC(N2CCN(C(C)C)CC2)CC1 [compound 428, N-(5-((6-((R)-3-(2,4-difluorophenyl)isoxazolidine-2-yl)pyrimidine-4-yl)amino)-2-(4-(4-isopropylpiperazine-1-yl)piperidine-1-yl)-4-methoxyphenyl) acrylamide] | A (GI50 < 50 nM) |
| C=CC(=O)Nc1cc(Nc2cc(N3OCC[C@@H]3c3cccc(Cl)c3Cl)ncn2)c(OC)cc1N1CCC(N2CCN(C)CC2)CC1 [compound 565, N-(5-((6-((R)-3-(2,3-dichlorophenyl)isoxazolidine-2-yl)pyrimidine-4-yl)amino)-4-methoxy-2-(4-(4-methylpiperazine-1-yl)piperidine-1-yl)phenyl) acrylamide] | A (GI50 < 50 nM) |
| C=CC(=O)Nc1cc(Nc2cc(N3OCC[C@@H]3c3cccc(Cl)c3F)ncn2)c(OC)cc1N1CCC(N2CCN(C3COC3)CC2)CC1 [Example 86, N-(5-((6-((R)-3-(3-chloro-2-fluorophenyl)isoxazolidine-2-yl)pyrimidine-4-yl)amino)-4-methoxy-2-(4-(4-(oxetane-3-yl)piperazine-1-yl)piperidine-1-yl)phenyl)acrylamide] | A (GI50 < 50 nM) |
| C=CC(=O)Nc1cc(Nc2cc(N3OCC[C@@H]3c3cc(F)cc(F)c3)ncn2)c(OC)cc1N1CCC(N2CCN(C3CC3)C[C@H]2C)CC1 [Example 112, N-(2-(4-((R)-4-cyclopropyl-2-methylpiperazine-1-yl)piperidine-1-yl)-5-((6-((R)-3-(3,5-difluorophenyl)isoxazolidine-2-yl)pyrimidine-4-yl)amino)-4-methoxyphenyl) acrylamide] | A (GI50 < 50 nM) |
| C=CC(=O)Nc1cc(Nc2cc(N3OCC[C@@H]3c3cc(F)ccc3F)ncn2)c(OC)cc1N1CCC(N2C[C@@H](C)O[C@@H](C)C2)CC1 [compound 714, N-(5-((6-((R)-3-(2,5-difluorophenyl)isoxazolidine-2-yl)pyrimidine-4-yl)amino)-2-(4-((2S,6R)-2,6-dimethylmorpholino)piperidine-1-yl)-4-methoxyphenyl) acrylamide] | A (GI50 < 50 nM) |
| C=CC(=O)Nc1cc(Nc2cc(N3OCC[C@@H]3c3cccc4ccccc34)ncn2)c(OC)cc1N1CC[C@@H](N(C)C)C1 [compound 443, N-(2-((R)-3-(dimethylamino)pyrolidine-1-yl)-4-methoxy-5-((6-((R)-3-(naphthalene-1-yl)isoxazolidine-2-yl)pyrimidine-4-yl)amino)phenyl) acrylamide] | A (GI50 < 50 nM) |

The next lines start with the values.

| Ba/F3 (NPH) Activity | Structure (SMILES) |
| --- | --- |
| A (GI50 < 50 nM) | C=CC(=O)Nc1cc(Nc2cc(N3OCC[C@@H]3c3ccc(F)cc3)ncn2)c(OC)cc1N1CCC(N2C[C@@H]3C[C@H]2CO3)CC1 [compound 812, N-(2-(4-((1S,4S)-2-oxa-5-azabicyclo [2.2.1]heptane-5-yl)piperidine-1-yl)-5-((6-((R)-3-(4-fluorophenyl)isoxazolidine-2-yl)pyrimidine-4-yl)amino)-4-methoxyphenyl) acrylamide] |
| A (GI50 < 50 nM) | C=CC(=O)Nc1cc(Nc2cc(N3OCC[C@@H]3c3ccc(F)c(Cl)c3)ncn2)c(OC)cc1N1CCC(N2CCN(C(C)=O)CC2)CC1 [compound 763, N-(2-(4-(4-acetylpiperazine-1-yl)piperidine-1-yl)-5-((6-((R)-3-(3-chloro-4-fluorophenyl)isoxazolidine-2-yl)pyrimidine-4-yl)amino)-4-methoxyphenyl) acrylamide] |
| A (GI50 < 50 nM) | C=CC(=O)Nc1cc(Nc2cc(N3OCC[C@@H]3c3cccc(F)c3)ncn2)c(OC)cc1N(C)CCOC [compound 838, N-(5-((6-((R)-3-(3-fluorophenyl)isoxazolidine-2-yl)pyrimidine-4-yl)amino)-4-methoxy-2-((2-methoxyethyl)(methyl)amino)phenyl) acrylamide] |
| B (50 nM ≤ GI50 < 500 nM) | C=CC(=O)Nc1cc(Nc2cc(N3OCC[C@@H]3c3cccc(OC)c3)ncn2)c(OC)cc1N1CCC(N(C)C)CC1 [compound 731] |
| B (50 nM ≤ GI50 < 500 nM) | C=CC(=O)Nc1cc(Nc2cc(N3OCC[C@@H]3c3cccc(Cl)c3F)ncn2)c(OC)cc1N1CCC(N2CCC(N(C)C)CC2)CC1 [compound 915, N-(5-((6-((R)-3-(3-chloro-2-fluorophenyl)isoxazolidine-2-yl)pyrimidine-4-yl)amino)-2-(4-(dimethylamino)-[1,4'-bipiperidine]-1'-yl)-4-methoxyphenyl) acrylamide] |
| A (GI50 < 50 nM) | C=CC(=O)Nc1cc(Nc2cc(N3OCC[C@@H]3c3ccc(F)c(Cl)c3)ncn2)c(OC)cc1N(C)CCOC [compound 904, N-(5-((6-((R)-3-(3-chloro-4-fluorophenyl)isoxazolidine-2-yl)pyrimidine-4-yl)amino)-4-methoxy-2-((2-methoxyethyl)(methyl)amino)phenyl) acrylamide] |
| C (500 nM ≤ GI50 < 5000 nM) | C=CC(=O)Nc1cc(Nc2cc(N3OCC[C@H]3c3c(F)cccc3F)ncn2)c(OC)cc1N1C[C@H]2CCN(C)[C@H]2C1 [compound 898, N-(5-((6-((S)-3-(2,6-difluorophenyl)isoxazolidine-2-yl)pyrimidine-4-yl)amino)-4-methoxy-2-((3aR,6aR)-1-methylhexahydropyrrolo [3,4-b]pyrrole-5(1H)-yl)phenyl) acrylamide] |
| B (50 nM ≤ GI50 < 500 nM) | C=CC(=O)Nc1cc(Nc2cc(N3OCC[C@@H]3Cc3ccc(C(F)(F)F)cc3)ncn2)c(OC)cc1N1CCC(N2CCN(C3CC3)CC2)CC1 [compound 1050, N-(2-(4-(4-cyclopropylpiperazine-1-yl)piperidine-1-yl)-4-methoxy-5-((6-((S)-3-(4-(trifluoromethyl)benzyl)isoxazolidine-2-yl)pyrimidine-4-yl)amino)phenyl) acrylamide] |
